# Reference: patent US8173632B2, “Process for the modification of the solid state of a compound and co-amorphous compositions produced with same” (priority 2007, dated 2012)
# “Also recorded” adds a separate entry of the source.
# Assays:
# [1] = literature reports; temperature as stated in value; cited from earlier work
# [2] = room temperature; cited from earlier work
# [3] = Room temperature storage stability of the non-crystalline / co-amorphous form against recrystallization; assay type: physicochemical; conditions: for stability of the non-crystalline / co-amorphous form, tendency to recrystallization (in words): room temperature storage
# From the text: The present invention is directed to stable crystalline and non-crystalline forms of organic compositions, particularly pharmaceutical compositions, that are stable at room temperature and to processes for producing the stable crystalline and non-crystalline forms with the process of the invention.
# Within an hour of the evaporation, the system stabilized with 80 percent or more of the mass of the sample cured to a clear non-crystalline form rather than a crystalline form.
# After the 6 months of storage, the laser treated aspirin was studied by PXRD.
# (§1) Subsequent tests with the protocol of Example 1b were repeated with the order of long and short wavelengths reversed, i.e., short wavelength followed by long wavelength cycled sequenced laser treatment. This protocol also produced up to 90 percent yields of room temperature stable non-crystalline glass aspirin, which remained stable at room temperature for over 23 months. The Petri dish containing such a sample of non-crystalline aspirin was placed on edge for a period of about six weeks.
# The glass cover was removed and the sample was allowed to desolvate in an open container through slow evaporation at about 20° C. and a relative humidity of 31 percent. Before the solvent had fully evaporated, the sample developed a few small areas of apparent crystallization that were surrounded with marker lines. As the evaporation continued, no significant extension of the crystal fronts was observed.
# [4] = Petri dish with non-crystalline aspirin placed on edge (flow test); assay type: physicochemical; conditions: Petri dish placed on edge for about six weeks
# From the text: as §1
# [5] = bulk form, same mass; cited from earlier work
Compound,stability of prior art aspirin forms against conversion / crystallization (in words) [1],"stability of the non-crystalline / co-amorphous form, tendency to recrystallization (in words) [3]",further results
"CC(=O)Oc1ccccc1C(=O)O [Aspirin Form II, aspirin]","kinetically stable at 100 K (−173° C.), but converts back to Form I at ambient conditions",–,–
"CC(=O)Oc1ccccc1C(=O)O [amorphous aspirin, aspirin]",converts rapidly to the crystalline Form I,–,–
"CC(=O)Oc1ccccc1C(=O)O [crystalline aspirin, Aspirin]",–,–,solubility in water [2]: 3330 µg/mL
"CC(=O)Oc1ccccc1C(=O)O [non-crystalline aspirin, Aspirin]",–,remain stable at room temperature for at least up to about a year; also recorded: stable at room temperature once the solvent had evaporated; also recorded: No crystallization has been observed in similarly prepared samples following an additional six months of storage,"period of storage with no change in appearance of the sample ([3]; room temperature of about 18° to 22° C. and about 30 to 40 percent humidity, Example 1b): over 6 months; period the non-crystalline glass remained stable ([3]; room temperature, Example 1c, short wavelength followed by long wavelength): over 23 months; flowing of the sample [4]: No flowing of the sample was observed"
"O=C1[C@H](CC[C@H](O)c2ccc(F)cc2)[C@@H](c2ccc(O)cc2)N1c1ccc(F)cc1 [non-crystalline ezetimibe, Ezetimibe]",–,remained stable for five weeks; also recorded: resisted crystallization even when adjacent to an organizing crystal front,–
"CC(=O)Oc1ccccc1C(=O)O [vitreous aspirin, aspirin]",did not crystallize for four to five days at 298K,–,dissolution of bulk vitreous aspirin compared with powdered crystals [5]: dissolve more slowly than the same mass of finely powdered crystals of aspirin
